In BigSolDB 2.1:

## C[C@H]1[C@H](OC(=O)CCC(=O)O)O[C@@H]2O[C@@]3(C)CC[C@H]4[C@H](C)CC[C@@H]1[C@@]24OO3
In ethanol, 283.06 K
  solubility (mole fraction): 0.0113
In ethanol, 288.14 K
  solubility (mole fraction): 0.0136
In ethanol, 293.19 K
  solubility (mole fraction): 0.0168
In ethanol, 298.24 K
  solubility (mole fraction): 0.0208
In ethanol, 303.21 K
  solubility (mole fraction): 0.0263
In ethanol, 308.16 K
  solubility (mole fraction): 0.0334
In ethanol, 313.14 K
  solubility (mole fraction): 0.0423
In ethanol, 318.22 K
  solubility (mole fraction): 0.0536
In ethanol, 323.2 K
  solubility (mole fraction): 0.0657
In ethyl acetate, 283.17 K
  solubility (mole fraction): 0.0199
In ethyl acetate, 288.17 K
  solubility (mole fraction): 0.0221
In ethyl acetate, 293.16 K
  solubility (mole fraction): 0.0246
In ethyl acetate, 298.14 K
  solubility (mole fraction): 0.0278
In ethyl acetate, 303.17 K
  solubility (mole fraction): 0.0309
In ethyl acetate, 308.14 K
  solubility (mole fraction): 0.0344
In ethyl acetate, 313.17 K
  solubility (mole fraction): 0.0382
In ethyl acetate, 318.16 K
  solubility (mole fraction): 0.0423
In ethyl acetate, 323.19 K
  solubility (mole fraction): 0.0473
In isobutanol, 283.14 K
  solubility (mole fraction): 0.00543
In isobutanol, 288.07 K
  solubility (mole fraction): 0.00698
In isobutanol, 293.14 K
  solubility (mole fraction): 0.00912
In isobutanol, 298.1 K
  solubility (mole fraction): 0.0118
In isobutanol, 303.05 K
  solubility (mole fraction): 0.0155
In isobutanol, 308.08 K
  solubility (mole fraction): 0.0196
In isobutanol, 313.07 K
  solubility (mole fraction): 0.0252
In isobutanol, 318.05 K
  solubility (mole fraction): 0.0325
In isobutanol, 323.15 K
  solubility (mole fraction): 0.0408
In isopentanol, 283.16 K
  solubility (mole fraction): 0.00573
In isopentanol, 288.17 K
  solubility (mole fraction): 0.00721
In isopentanol, 293.14 K
  solubility (mole fraction): 0.00915
In isopentanol, 298.16 K
  solubility (mole fraction): 0.0119
In isopentanol, 303.16 K
  solubility (mole fraction): 0.0151
In isopentanol, 308.14 K
  solubility (mole fraction): 0.0194
In isopentanol, 313.17 K
  solubility (mole fraction): 0.0244
In isopentanol, 318.16 K
  solubility (mole fraction): 0.031
In isopentanol, 323.16 K
  solubility (mole fraction): 0.0397
In isopropanol, 283.06 K
  solubility (mole fraction): 0.00541
In isopropanol, 288.14 K
  solubility (mole fraction): 0.00717
In isopropanol, 293.19 K
  solubility (mole fraction): 0.00965
In isopropanol, 298.24 K
  solubility (mole fraction): 0.012
In isopropanol, 303.21 K
  solubility (mole fraction): 0.016
In isopropanol, 308.16 K
  solubility (mole fraction): 0.0209
In isopropanol, 313.14 K
  solubility (mole fraction): 0.0276
In isopropanol, 318.22 K
  solubility (mole fraction): 0.0362
In isopropanol, 323.2 K
  solubility (mole fraction): 0.047
In isopropyl acetate, 283.17 K
  solubility (mole fraction): 0.0122
In isopropyl acetate, 288.19 K
  solubility (mole fraction): 0.0135
In isopropyl acetate, 293.2 K
  solubility (mole fraction): 0.0149
In isopropyl acetate, 298.14 K
  solubility (mole fraction): 0.0167
In isopropyl acetate, 303.19 K
  solubility (mole fraction): 0.0186
In isopropyl acetate, 308.16 K
  solubility (mole fraction): 0.0206
In isopropyl acetate, 313.14 K
  solubility (mole fraction): 0.0229
In isopropyl acetate, 318.14 K
  solubility (mole fraction): 0.0258
In isopropyl acetate, 323.2 K
  solubility (mole fraction): 0.029
In methyl propionate, 283.19 K
  solubility (mole fraction): 0.0207
In methyl propionate, 288.22 K
  solubility (mole fraction): 0.0232
In methyl propionate, 293.23 K
  solubility (mole fraction): 0.0258
In methyl propionate, 298.17 K
  solubility (mole fraction): 0.0286
In methyl propionate, 303.23 K
  solubility (mole fraction): 0.0318
In methyl propionate, 308.14 K
  solubility (mole fraction): 0.0355
In methyl propionate, 313.24 K
  solubility (mole fraction): 0.0395
In methyl propionate, 318.16 K
  solubility (mole fraction): 0.0442
In methyl propionate, 323.18 K
  solubility (mole fraction): 0.0497
In n-butanol, 283.14 K
  solubility (mole fraction): 0.00719
In n-butanol, 288.07 K
  solubility (mole fraction): 0.00886
In n-butanol, 293.14 K
  solubility (mole fraction): 0.0112
In n-butanol, 298.1 K
  solubility (mole fraction): 0.0143
In n-butanol, 303.05 K
  solubility (mole fraction): 0.0181
In n-butanol, 308.08 K
  solubility (mole fraction): 0.0233
In n-butanol, 313.07 K
  solubility (mole fraction): 0.0298
In n-butanol, 318.05 K
  solubility (mole fraction): 0.0379
In n-butanol, 323.15 K
  solubility (mole fraction): 0.0485
In n-butyl acetate, 283.17 K
  solubility (mole fraction): 0.012
In n-butyl acetate, 288.19 K
  solubility (mole fraction): 0.0135
In n-butyl acetate, 293.2 K
  solubility (mole fraction): 0.015
In n-butyl acetate, 298.14 K
  solubility (mole fraction): 0.0168
In n-butyl acetate, 303.19 K
  solubility (mole fraction): 0.0191
In n-butyl acetate, 308.16 K
  solubility (mole fraction): 0.0213
In n-butyl acetate, 313.14 K
  solubility (mole fraction): 0.0237
In n-butyl acetate, 318.14 K
  solubility (mole fraction): 0.0269
In n-butyl acetate, 323.2 K
  solubility (mole fraction): 0.0304
In n-pentanol, 283.23 K
  solubility (mole fraction): 0.0111
In n-pentanol, 288.23 K
  solubility (mole fraction): 0.0137
In n-pentanol, 293.29 K
  solubility (mole fraction): 0.017
In n-pentanol, 298.5 K
  solubility (mole fraction): 0.0216
In n-pentanol, 303.24 K
  solubility (mole fraction): 0.0266
In n-pentanol, 308.02 K
  solubility (mole fraction): 0.0328
In n-pentanol, 313.08 K
  solubility (mole fraction): 0.0408
In n-pentanol, 318.05 K
  solubility (mole fraction): 0.0491
In n-pentanol, 323.1 K
  solubility (mole fraction): 0.0594
In n-pentyl acetate, 283.14 K
  solubility (mole fraction): 0.00918
In n-pentyl acetate, 288.24 K
  solubility (mole fraction): 0.0104
In n-pentyl acetate, 293.3 K
  solubility (mole fraction): 0.0117
In n-pentyl acetate, 298.28 K
  solubility (mole fraction): 0.0133
In n-pentyl acetate, 303.24 K
  solubility (mole fraction): 0.0149
In n-pentyl acetate, 308.22 K
  solubility (mole fraction): 0.0168
In n-pentyl acetate, 313.13 K
  solubility (mole fraction): 0.0191
In n-pentyl acetate, 318.18 K
  solubility (mole fraction): 0.0216
In n-pentyl acetate, 323.24 K
  solubility (mole fraction): 0.0244
In n-propanol, 283.14 K
  solubility (mole fraction): 0.00832
In n-propanol, 288.07 K
  solubility (mole fraction): 0.0103
In n-propanol, 293.14 K
  solubility (mole fraction): 0.013
In n-propanol, 298.08 K
  solubility (mole fraction): 0.0163
In n-propanol, 303.02 K
  solubility (mole fraction): 0.0207
In n-propanol, 308.05 K
  solubility (mole fraction): 0.0264
In n-propanol, 313.03 K
  solubility (mole fraction): 0.034
In n-propanol, 318.05 K
  solubility (mole fraction): 0.0427
In n-propanol, 323.05 K
  solubility (mole fraction): 0.0542
In n-propyl acetate, 283.16 K
  solubility (mole fraction): 0.0159
In n-propyl acetate, 288.24 K
  solubility (mole fraction): 0.0176
In n-propyl acetate, 293.16 K
  solubility (mole fraction): 0.0194
In n-propyl acetate, 298.18 K
  solubility (mole fraction): 0.0216
In n-propyl acetate, 303.16 K
  solubility (mole fraction): 0.024
In n-propyl acetate, 308.16 K
  solubility (mole fraction): 0.0269
In n-propyl acetate, 313.18 K
  solubility (mole fraction): 0.0302
In n-propyl acetate, 318.16 K
  solubility (mole fraction): 0.0336
In n-propyl acetate, 323.16 K
  solubility (mole fraction): 0.0375
